Assays:
Type in all cases: cell-based
BT474 cells [1] = experiment: Cell death in BT474 cells (FIG. 5, FIG. 15); conditions: for induction of cell death: BT474, 24 hr, BN108 0.5 mg/mL, Timosaponin A3 4 μg/mL, Timosaponin B2 50 μg/mL, lamarinase-treated Timosaponin B2 4 μg/mL
Protocol: FIG. 5. Effect of Timosaponins A3 and B2 on viability of breast cancer (BT474) and normal epithelial cells (MCF10A). Cells were treated with BN108 at 0.5 mg/ml, Timosaponin A3 at 4 μg/ml, or Timosaponin B2 at 50 μg/ml, inactivated lamarinase alone or lamarinase-treated B2 at 4 μg/ml for 24 hours.
FIG. 15. Conversion of Timosaponin B2 to Timosaponin A3 by lamarinase was confirmed by time of flight mass spectrometry (TOF MS). Disappearance of Timosaponin B2 and appearance of Timosaponin A3 results in an increase in cell death from 16% in the presence of inactivated lamarinase and Timosaponin B2 to 53% in the presence of activated lamarinase and Timosaponin B2.
The effect of Timosaponins A3 and B2 on the viability of breast cancer cells and normal epithelial cells was tested by treating cells with either 0.5 mg/mL BN108, 4 μg/mL Timosaponin A3, 50 μg/mL Timosaponin B2, inactivated lamarinase alone or lamarinase-treated Timosaponin B2 (4 μg/mL) for 24 hr. […] The difference in activity between Timosaponin A3 and lamarinase treated Timosaponin B2 is, on a molar basis, probably negligible, given that the quotient of the molecular weights of Timosaponin B2 (920 Da) and Timosaponin A3 (740 Da) is roughly equivalent to the ratio of the % dead cells in the Timosaponin A3 and the lamarinase-treated Timosaponin B2. Thus, it can be inferred that nearly all the Timosaponin B2 is converted into Timosaponin A3, and is active to induced apoptosis, in the presence of lamarinase.

cancer cells = experiment: Induction of apoptosis in vitro
BT474 cells [2] = experiment: FACScan propidium iodide / Annexin V viability and apoptosis (FIG. 9, table); conditions: for % Difference from control: control = DMSO; for cells surviving: BT474, 24 hours
Protocol: FIG. 9. […] BT474 cells were treated for 24 hours, and percent of live cells was analyzed on FACScan based on permeability of dead cells for propidium iodide and binding of Annexin V.
The cytotoxic effects of BN108 and Timosaponin A3 are attenuated by cholesterol (CHL) and the caspase 4 inhibitor LEVD. […] Treatment of BT474 cells with […] cholesterol protected the cells from the effects of Timosaponin A3 and BN108, with about 80% of the cells surviving 24 hours in the presence of cholesterol (CHL).

IDI1 = experiment: Expression of SREBP2 target gene IDI1 in BT474 cells (FIG. 7); conditions: Timosaponin A3 5 μM, BN108 0.5 mg/mL
Protocol: (§1) FIG. 7. Purified Timosaponin A3 and BN108 extract have similar effects on phosphorylation of eIF2a and on activation of SREBP2 as well as expression on SREBP2 target gene IDI1. BT474 cells were treated with TspA3 (5 μM) or BN108 (0.5 mg/ml). Both BN108 and Timosaponin A3 induce the pro-apoptotic gene REDD1 in prostate cancer cells.

REDD1 = REDD1 induction in Du145 cells (FIG. 6); conditions: Du145 prostate cancer cells; BN108 0.5 mg/mL, Timosaponin A3 7.5 μM
Protocol: FIG. 6. Pro-apoptotic gene REDD1 is induced in prostate cancer cell line Du145 by treatment with BN108 (0.5 mg/ml) and Timosaponin A3 (7.5 μM). Both BN108 and Timosaponin A3 induce the pro-apoptotic gene REDD1 in prostate cancer cells.

MM23 breast cancer cells = experiment: Cholesterol content of cell extracts (FIG. 8); conditions: cancerous (MM23) breast cells
Protocol: (§2) FIG. 8. Purified Timosaponin A3 and BN108 extract have similar effects on cholesterol synthesis on breast cancer cells MM23 and normal MCF10A cells. Cells were treated with either BN108 or TspA3 for indicated times, and cell extracts were analyzed for cholesterol content, which was normalized to the protein content.
(§3) BN108 and Timosaponin A3 had similar effects on cholesterol (CHL) synthesis in cancerous and normal cells.

MCF10A cells = experiment: Cholesterol content of cell extracts (FIG. 8); conditions: normal (MCF10A) breast cells, through the first 8 hours after treatment
Protocol: as §2, §3

SREBP2 = SREBP2 activation in BT474 cells (FIG. 4B, FIG. 7); conditions: Timosaponin A3 5 μM, BN108 0.5 mg/mL
Protocol: FIG. 4. […] B. SREBP2 is activated by BN108 in both cell lines. Activated AKT was detected using antibody to phosphoserine 473 (Phospho-AKT) that is phosphorylated only in active kinase.
FIG. 7. Purified Timosaponin A3 and BN108 extract have similar effects on phosphorylation of eIF2a and on activation of SREBP2 as well as expression on SREBP2 target gene IDI1. BT474 cells were treated with TspA3 (5 μM) or BN108 (0.5 mg/ml).
In FIG. 4B, it can be seen that SREBP2 is activeated by BN108 in both the cancer cells (BT474) and the non-cancerous cells (MCF10A).
Both BN108 and Timosaponin A3 induce the pro-apoptotic gene REDD1 in prostate cancer cells.

non-cancerous cells = experiment: Induction of apoptosis in vitro
eIF2a = experiment: Phosphorylation of eIF2a in BT474 cells (FIG. 7); conditions: Timosaponin A3 5 μM, BN108 0.5 mg/mL
Protocol: as §1

Row | SMILES | induction of cell death (BT474 cells [1]) | cell death (BT474 cells [1]; in the presence of inactivated lamarinase (FIG. 15)) | induction of apoptosis (cancer cells) | % Total apoptotic (BT474 cells [2]) | % early apoptotic (BT474 cells [2]) | % late apoptotic (BT474 cells [2]) | % Difference from control (BT474 cells [2]) | expression of IDI1 (IDI1) | REDD1 gene induction (REDD1) | cholesterol synthesis (MM23 breast cancer cells) | cholesterol synthesis (MCF10A cells) | expression of SREBP2 (SREBP2) | cells surviving (BT474 cells [2]) | cells surviving (BT474 cells [2]; with 250 mM cholesterol (CHL)) | induction of apoptosis (non-cancerous cells) | phosphorylation of eIF2a (eIF2a)
1 | C[C@@H](CCC1(O)O[C@H]2C[C@H]3[C@@H]4CC[C@@H]5C[C@@H](O[C@@H]6O[C@H](CO)[C@H](O)[C@H](O)[C@H]6O[C@@H]6O[C@H](CO)[C@@H](O)[C@H](O)[C@H]6O)CC[C@]5(C)[C@H]4CC[C@]3(C)[C@H]2[C@@H]1C)CO[C@@H]1O[C@H](CO)[C@@H](O)[C@H](O)[C@H]1O (stereo partly shown) [Timosaponin B2] | did not induce cell death | 16% | does not induce apoptosis | 12% | 7% | 5% | 1% | – | – | – | – | – | – | – | – | –
2 | CC1CCC2(OC1)OC1CC3C4CCC5CC(OC6OC(CO)C(O)C(O)C6OC6OC(CO)C(O)C(O)C6O)CC[C@]5(C)C4CC[C@]3(C)[C@H]1[C@@H]2C (stereo partly shown) [Timosaponin A3] | induced cell death | – | induces of apoptosis | 68% | 35% | 33% | 57% | increase expression of IDI1 | induced | increase cholesterol synthesis slightly | reduce cholesterol synthesis | increase expression of SREBP2 | 40% | about 80% | does not induce apoptosis | increase phosphorylation of elF2a

From patent US20100009017A1, “Anticancer Methods Using Extracts of Anemarrhena asphodeloides Bunge” (BIONOVO, INC., priority 2008, published 2010)
